Laboratory results from patent US20080207614A1, “QUINAZOLINE DERIVATIVES FOR THE TREATMENT AND PREVENTION OF DIABETES AND OBESITY” (SK CHEMICALS CO., LTD., priority 2004, published 2008).

Key:
AMPK = experiment: Measurement of AMPK activity by Western blot in C2C12 cells; type: cell-based; parameters: key to AMPK activity (degree of phosphorylation of serine-79 and threonine-172): fold increase in threonine-172 phosphorylation; settings: 10 μM for 50 minutes; for AMPK activity (degree of phosphorylation of serine-79 and threonine-172): no superscript: Western blot of serine-79 and threonine-172 phosphorylation; for AMPK activity (class: degree of phosphorylation of threonine-172): strong/mild/weak
Outline: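 Differentiated C2C12 cells were exposed to test material at 10 μM for 50 minutes, then lysed. AMPK activity was taken from Western blots of Thr-172 phosphorylation and acetyl CoA carboxylase Ser-79 phosphorylation, with ERK as loading reference. Thr-172 rise was graded strong (≥3-fold), mild (1-3-fold) or weak (<1-fold).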

C2C12 muscle cells = experiment: Analysis of glucose absorption (2-deoxyglucose) in differentiated C2C12 muscle cells; type: cell-based; settings: test materials 10 μM, times relative to control group
Outline: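 Differentiated C2C12 myotubes (6 days in 1% serum) held 3 h in KRB with 5 mM glucose, then given test material at 10 μM. After 30 min, 0.2 μCi 2-deoxyglucose added for 20 min; uptake measured by radioactive counting of NaOH lysates.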

| SMILES | AMPK activity (degree of phosphorylation of serine-79 and threonine-172) (AMPK) | AMPK activity (class: degree of phosphorylation of threonine-172) (AMPK) | Glucose absorption (C2C12 muscle cells) |
| --- | --- | --- | --- |
| Fc1ccc(F)c(CNc2nc(-c3ccccc3)nc3ccccc23)c1 [Compound 135, (2,5-Difluorobenzyl)-(2-phenylquinazolino-4-yl)-amine] | 2.0 | strong (“strong” means that the degree of phosphorylation of threonine-172 increased by 3 times or more) | 2.6 |
| Brc1ccc(CCNc2nc(-c3ccccc3)nc3ccccc23)cc1 [Compound 137, [2-(4-Bromophenyl)-ethyl]-(2-phenylquinazolino-4-yl)-amine] | 3.1 | strong (“strong” means that the degree of phosphorylation of threonine-172 increased by 3 times or more) | 2.4 |
| CCCCN(C)c1nc(-c2ccccc2)nc2ccccc12 [Compound 138, Butylmethyl-(2-phenylquinazolino-4-yl)-amine] | 2.9 | strong (“strong” means that the degree of phosphorylation of threonine-172 increased by 3 times or more) | 2.4 |
| FC(F)(F)c1ccc(CNc2nc(-c3ccccc3)nc3ccccc23)cc1 [Compound 139, (2-Phenylquinazolino-4-yl)-(4-trifluoromethylbenzyl)-amine] | 2.1 | strong (“strong” means that the degree of phosphorylation of threonine-172 increased by 3 times or more) | 2.5 |
| Fc1ccccc1CCNc1nc(-c2ccccc2)nc2ccccc12 [Compound 140, [2-(2-Fluorophenyl)-ethyl]-(2-phenylquinazolino-4-yl)-amine] | 3.1 | strong (“strong” means that the degree of phosphorylation of threonine-172 increased by 3 times or more) | 2.7 |
| c1ccc(-c2nc(NCc3ccccn3)c3ccccc3n2)cc1 [Compound 142, (2-Phenylquinazolino-4-yl)-pyridino-2-ylmethylamine] | 1.4 | mild (“mild” means that the degree of phosphorylation of threonine-172 increased by 1 to 3 times) | 1.4 |
| CC1CCCC(Nc2nc(-c3ccccc3)nc3ccccc23)C1C (stereo not drawn) [Compound 143, (2,3-Dimethylcyclohexyl)-(2-phenylquinazolino-4-yl)-amine] | 2.4 | strong (“strong” means that the degree of phosphorylation of threonine-172 increased by 3 times or more) | 2.3 |
| COc1ccc(CNc2nc(-c3ccccc3)nc3ccccc23)c(OC)c1 [Compound 144, (2,4-Dimethoxybenzyl)-(2-phenylquinazolino-4-yl)-amine] | 2.1 | strong (“strong” means that the degree of phosphorylation of threonine-172 increased by 3 times or more) | 1.3 |
| Clc1cccc(CNc2nc(-c3ccccc3)nc3ccccc23)c1 [Compound 145, (3-Chlorobenzyl)-(2-phenylquinazolino-4-yl)-amine] | 2.7 | strong (“strong” means that the degree of phosphorylation of threonine-172 increased by 3 times or more) | 2.2 |
| COc1ccc(OC)c(CNc2nc(-c3ccccc3)nc3ccccc23)c1 [Compound 147, (2,5-Dimethoxybenzyl)-(2-phenylquinazolino-4-yl)-amine] | 1.8 | strong (“strong” means that the degree of phosphorylation of threonine-172 increased by 3 times or more) | 1.3 |
| Brc1ccc(CNc2nc(-c3ccccc3)nc3ccccc23)cc1 [Compound 148, (4-Bromobenzyl)-(2-phenylquinazolino-4-yl)-amine] | 1.7 | strong (“strong” means that the degree of phosphorylation of threonine-172 increased by 3 times or more) | 2.1 |
| Clc1ccc(CCNc2nc(-c3ccccc3)nc3ccccc23)cc1Cl [Compound 149, [2-(3,4-Dichlorophenyl)-ethyl]-(2-phenylquinazolino-4-yl)-amine] | 2.5 | strong (“strong” means that the degree of phosphorylation of threonine-172 increased by 3 times or more) | 2.6 |
| Clc1ccccc1CCNc1nc(-c2ccccc2)nc2ccccc12 [Compound 151, [2-(2-Chlorophenyl)-ethyl]-(2-phenylquinazolino-4-yl)-amine] | 1.8 | strong (“strong” means that the degree of phosphorylation of threonine-172 increased by 3 times or more) | 1.3 |
| Brc1cccc(CNc2nc(-c3ccccc3)nc3ccccc23)c1 [Compound 153, (3-Bromobenzyl)-(2-phenylquinazolino-4-yl)-amine] | 1.3 | mild (“mild” means that the degree of phosphorylation of threonine-172 increased by 1 to 3 times) | 2.4 |
| Brc1ccccc1CNc1nc(-c2ccccc2)nc2ccccc12 [Compound 155, (2-Bromobenzyl)-(2-phenylquinazolino-4-yl)-amine] | 1.3 | mild (“mild” means that the degree of phosphorylation of threonine-172 increased by 1 to 3 times) | 2.7 |
| Cc1nc(NCc2ccccc2)c2ccccc2n1 [Compound 163, Benzyl-(2-methylquinazolino-4-yl)-amine] | 2.8 | strong (“strong” means that the degree of phosphorylation of threonine-172 increased by 3 times or more) | 2.5 |
| COc1cccc(CNc2nc(C)nc3ccccc23)c1 [Compound 164, (3-Methoxybenzyl)-(2-methylquinazolino-4-yl)-amine] | 1.6 | mild (“mild” means that the degree of phosphorylation of threonine-172 increased by 1 to 3 times) | 3.4 |
| COc1ccc(CNc2nc(C)nc3ccccc23)cc1 [Compound 165, (4-Methoxybenzyl)-(2-methylquinazolino-4-yl)-amine] | 5.2 | strong (“strong” means that the degree of phosphorylation of threonine-172 increased by 3 times or more) | 2.5 |
| Cc1nc(NCc2cccc(C(F)(F)F)c2)c2ccccc2n1 [Compound 166, (2-Methylquinazolino-4-yl)-(3-trifluoromethylbenzyl)-amine] | 3.8 | strong (“strong” means that the degree of phosphorylation of threonine-172 increased by 3 times or more) | 2.8 |
| Cc1nc(NCCc2ccccc2)c2ccccc2n1 [Compound 167, (2-Methylquinazolino-4-yl)-phenethylamine] | 6.7 | strong (“strong” means that the degree of phosphorylation of threonine-172 increased by 3 times or more) | 3.2 |
| Cc1nc(NCCCCc2ccccc2)c2ccccc2n1 [Compound 168, (2-Methylquinazolino-4-yl)-(4-phenylbutyl)-amine] | 8.4 | strong (“strong” means that the degree of phosphorylation of threonine-172 increased by 3 times or more) | 3.6 |
| Cc1nc(NCc2cccc3ccccc23)c2ccccc2n1 [Compound 169, (2-Methylquinazolino-4-yl)-naphthaleno-1-ylmethylamine] | 6.6 | strong (“strong” means that the degree of phosphorylation of threonine-172 increased by 3 times or more) | 2.5 |
| Cc1nc(NCc2ccc3c(c2)OCO3)c2ccccc2n1 [Compound 170, Benzo[1,3]dioxol-5-ylmethyl-(2-methylquinazolino-4-yl)-amine] | 8.8 | strong (“strong” means that the degree of phosphorylation of threonine-172 increased by 3 times or more) | 2.4 |
| Cc1nc(NCc2cccc(F)c2)c2ccccc2n1 [Compound 171, (3-Fluorobenzyl)-(2-methylquinazolino-4-yl)-amine] | 6.6 | strong (“strong” means that the degree of phosphorylation of threonine-172 increased by 3 times or more) | 2.2 |
| Cc1nc(NCCc2cccc(F)c2)c2ccccc2n1 [Compound 172, [2-(3-Fluorophenyl)-ethyl]-(2-methylquinazolino-4-yl)-amine] | 4.4 | strong (“strong” means that the degree of phosphorylation of threonine-172 increased by 3 times or more) | 2.6 |
